Source: PubChem BioAssay (NCI)
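Cells were grown in 96-well plates and exposed to each compound for 48 hours at five concentrations; endpoints were interpolated linearly between bracketing concentrations, or set to the highest concentration if not reached. The concentration for 50% growth inhibition is given as GI50. TGI denotes the concentration required for complete inhibition of growth.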 Where a SMILES comes first, the peptide text is derived from it. [ ]: non-standard residue; d: D form. The star is where a group is joined. dTle = CC(C)(C)[C@@H](N)C(=O)O; 4Abz = Nc1ccc(C(=O)O)cc1; NHOH = ON*

Legend:
Test in all cases: inhibition of tumour cell growth, NCI panel, 48 h; in the data active means GI50 below about 0.43 µM; inactive means the rest
EKVX NSCLC = test system: EKVX NSCLC
U251 CNS = test system: U251 CNS
COLO 205 colon = test system: COLO 205 colon
OVCAR-5 ovarian = test system: OVCAR-5 ovarian
SK-MEL-2 melanoma = test system: SK-MEL-2 melanoma
NCI-H23 lung = test system: NCI-H23 lung
HCT-116 colon = test system: HCT-116 colon
LOX IMVI melanoma = test system: LOX IMVI melanoma
NCI-H460 lung = test system: NCI-H460 lung
K-562 leukemia = test system: K-562 leukemia
M14 melanoma = test system: M14 melanoma
BT-549 breast = test system: BT-549 breast
MCF7 breast = test system: MCF7 breast
SNB-75 CNS = test system: SNB-75 CNS
OVCAR-4 ovarian = test system: OVCAR-4 ovarian
HCT-15 colon = test system: HCT-15 colon
CAKI-1 renal = test system: CAKI-1 renal
KM12 colon = test system: KM12 colon
SK-OV-3 ovarian = test system: SK-OV-3 ovarian
SK-MEL-28 melanoma = test system: SK-MEL-28 melanoma
HOP-92 NSCLC = test system: HOP-92 NSCLC
MALME-3M melanoma = test system: MALME-3M melanoma
ACHN renal = test system: ACHN renal
SN12C renal = test system: SN12C renal
SF-268 CNS = test system: SF-268 CNS
HS 578T breast = test system: HS 578T breast
NCI/ADR-RES ovarian = test system: NCI/ADR-RES ovarian
HOP-62 NSCLC = test system: HOP-62 NSCLC
DU-145 prostate = test system: DU-145 prostate
UO-31 renal = test system: UO-31 renal
NCI-H522 lung = test system: NCI-H522 lung
SNB-19 CNS = test system: SNB-19 CNS
786-0 renal = test system: 786-0 renal
SW-620 colon = test system: SW-620 colon
TK-10 renal = test system: TK-10 renal
SF-539 CNS = test system: SF-539 CNS
MOLT-4 leukemia = test system: MOLT-4 leukemia
A498 renal = test system: A498 renal
OVCAR-3 ovarian = test system: OVCAR-3 ovarian
NCI-H226 lung = test system: NCI-H226 lung
IGROV1 ovarian = test system: IGROV1 ovarian
HCC-2998 colon = test system: HCC-2998 colon
A549 NSCLC = test system: A549 NSCLC
SK-MEL-5 melanoma = test system: SK-MEL-5 melanoma
T-47D breast = test system: T-47D breast
OVCAR-8 ovarian = test system: OVCAR-8 ovarian
UACC-62 melanoma = test system: UACC-62 melanoma
HT29 colon = test system: HT29 colon
MDA-MB-435 = test system: MDA-MB-435
UACC-257 melanoma = test system: UACC-257 melanoma
SF-295 CNS = test system: SF-295 CNS
MDA-MB-231 breast = test system: MDA-MB-231 breast
PC-3 prostate = test system: PC-3 prostate

C[C@@H](NC(=O)[C@H](NC(=O)[C@@H]1CCCN1C(=O)CNC(=O)c1ccc(N)cc1)C(C)(C)C)C(=O)NO (H-[4Abz]GP[dTle][dA]-{NHOH})
> 100 µM: TGI (EKVX NSCLC) | TGI (U251 CNS) | TGI (COLO 205 colon) | TGI (OVCAR-5 ovarian) | TGI (SK-MEL-2 melanoma) | TGI (NCI-H23 lung) | TGI (HCT-116 colon) | TGI (LOX IMVI melanoma) | TGI (NCI-H460 lung) | TGI (K-562 leukemia) | TGI (M14 melanoma) | TGI (BT-549 breast) | TGI (MCF7 breast) | TGI (SNB-75 CNS) | TGI (OVCAR-4 ovarian) | TGI (HCT-15 colon) | TGI (CAKI-1 renal) | TGI (KM12 colon) | TGI (SK-OV-3 ovarian) | TGI (SK-MEL-28 melanoma) | TGI (HOP-92 NSCLC) | TGI (MALME-3M melanoma) | TGI (ACHN renal) | TGI (SN12C renal) | TGI (SF-268 CNS) | TGI (HS 578T breast) | TGI (NCI/ADR-RES ovarian) | TGI (HOP-62 NSCLC) | TGI (DU-145 prostate) | TGI (UO-31 renal) | TGI (NCI-H522 lung) | TGI (SNB-19 CNS) | TGI (786-0 renal) | TGI (SW-620 colon) | TGI (TK-10 renal) | TGI (SF-539 CNS) | TGI (MOLT-4 leukemia) | TGI (A498 renal) | TGI (OVCAR-3 ovarian) | TGI (NCI-H226 lung) | TGI (IGROV1 ovarian) | TGI (HCC-2998 colon) | TGI (A549 NSCLC) | TGI (SK-MEL-5 melanoma) | TGI (T-47D breast) | TGI (OVCAR-8 ovarian) | TGI (UACC-62 melanoma) | TGI (HT29 colon) | TGI (MDA-MB-435) | TGI (UACC-257 melanoma) | TGI (SF-295 CNS) | TGI (MDA-MB-231 breast) | TGI (PC-3 prostate)
inactive: GI50 (EKVX NSCLC) > 100 µM | GI50 (U251 CNS) > 100 µM | GI50 (COLO 205 colon) > 100 µM | GI50 (OVCAR-5 ovarian) > 100 µM | GI50 (SK-MEL-2 melanoma) > 100 µM | GI50 (NCI-H23 lung) > 100 µM | GI50 (HCT-116 colon) > 100 µM | GI50 (LOX IMVI melanoma) > 100 µM | GI50 (NCI-H460 lung) > 100 µM | GI50 (K-562 leukemia) > 100 µM | GI50 (M14 melanoma) > 100 µM | GI50 (BT-549 breast) > 100 µM | GI50 (MCF7 breast) > 100 µM | GI50 (SNB-75 CNS) > 100 µM | GI50 (OVCAR-4 ovarian) > 100 µM | GI50 (HCT-15 colon) > 100 µM | GI50 (CAKI-1 renal) > 100 µM | GI50 (KM12 colon) > 100 µM | GI50 (SK-OV-3 ovarian) > 100 µM | GI50 (SK-MEL-28 melanoma) > 100 µM | GI50 (HOP-92 NSCLC) 5.76 µM | GI50 (MALME-3M melanoma) > 100 µM | GI50 (ACHN renal) > 100 µM | GI50 (SN12C renal) > 100 µM | GI50 (SF-268 CNS) > 100 µM | GI50 (HS 578T breast) > 100 µM | GI50 (NCI/ADR-RES ovarian) > 100 µM | GI50 (HOP-62 NSCLC) > 100 µM | GI50 (DU-145 prostate) > 100 µM | GI50 (UO-31 renal) > 100 µM | GI50 (NCI-H522 lung) > 100 µM | GI50 (SNB-19 CNS) > 100 µM | GI50 (786-0 renal) > 100 µM | GI50 (SW-620 colon) > 100 µM | GI50 (TK-10 renal) > 100 µM | GI50 (SF-539 CNS) > 100 µM | GI50 (MOLT-4 leukemia) > 100 µM | GI50 (A498 renal) > 100 µM | GI50 (OVCAR-3 ovarian) > 100 µM | GI50 (NCI-H226 lung) > 100 µM | GI50 (IGROV1 ovarian) > 100 µM | GI50 (HCC-2998 colon) > 100 µM | GI50 (A549 NSCLC) > 100 µM | GI50 (SK-MEL-5 melanoma) > 100 µM | GI50 (T-47D breast) > 100 µM | GI50 (OVCAR-8 ovarian) > 100 µM | GI50 (UACC-62 melanoma) > 100 µM | GI50 (HT29 colon) > 100 µM | GI50 (MDA-MB-435) > 100 µM | GI50 (UACC-257 melanoma) > 100 µM | GI50 (SF-295 CNS) > 100 µM | GI50 (MDA-MB-231 breast) > 100 µM | GI50 (PC-3 prostate) > 100 µM
